Measurements from patent US20100292188A1, “Compounds Comprising A Cyclobutoxy Group” (UCB PHARMA S.A., priority 2008, published 2010).

SMILES | melting point
O=C(CO)N1CCc2nc(-c3ccc(O[C@H]4C[C@H](N5CCCCC5)C4)cc3)sc2C1 [Compound 11, 2-oxo-2-[2-{4-[(trans-3-piperidin-1-ylcyclobutyl)oxy]phenyl}-6,7-dihydro[1,3]thiazolo[5,4-c]pyridin-5(4H)-yl]ethanol] | 177 °C
O=C(CC(F)(F)F)N1CCc2nc(-c3ccc(O[C@H]4C[C@H](N5CCCCC5)C4)cc3)sc2C1 [Compound 33, 2-{4-[(trans-3-piperidin-1-ylcyclobutyl)oxy]phenyl}-5-(3,3,3-trifluoropropanoyl)-4,5,6,7-tetrahydro[1,3]thiazolo[5,4-c]pyridine] | 167 to 168 °C
CC(=O)N1CCc2nc(-c3ccc(O[C@H]4C[C@H](N5CCCCC5)C4)cc3)sc2C1 [Compound 4, 5-acetyl-2-{4-[(trans-3-piperidin-1-ylcyclobutyl)oxy]phenyl}-4,5,6,7-tetrahydro[1,3]thiazolo[5,4-c]pyridine] | 170.3 °C
c1cc2sc(-c3ccc(O[C@H]4C[C@H](N5CCCCC5)C4)cc3)nc2cn1 [Compound 32, 2-{4-[(trans-3-piperidin-1-ylcyclobutyl)oxy]phenyl}[1,3]thiazolo[4,5-c]pyridine] | 65 °C
CC(=O)N1CCCc2sc(-c3ccc(O[C@H]4C[C@H](N5CCCCC5)C4)cc3)nc21 [Compound 30, 4-acetyl-2-{4-[(trans-3-piperidin-1-ylcyclobutyl)oxy]phenyl}-4,5,6,7-tetrahydro[1,3]thiazolo[4,5-b]pyridine] | 146 °C

Now from value to compound:

melting point | SMILES
147 to 148 °C | O=C(C(O)C(F)(F)F)N1CCc2nc(-c3ccc(O[C@H]4C[C@H](N5CCCCC5)C4)cc3)sc2C1 (stereo partly drawn) [Compound 44, 1,1,1-trifluoro-3-oxo-3-[2-{4-[(trans-3-piperidin-1-ylcyclobutyl)oxy]phenyl}-6,7-dihydro[1,3]thiazolo[5,4-c]pyridin-5(4H)-yl]propan-2-ol]
145 to 146 °C | CCOC(=O)C(=O)N1CCc2nc(-c3ccc(O[C@H]4C[C@H](N5CCCCC5)C4)cc3)sc2C1 [Compound 49, ethyl oxo[2-{4-[(trans-3-piperidin-1-ylcyclobutyl)oxy]phenyl}-6,7-dihydro[1,3]thiazolo[5,4-c]pyridin-5(4H)-yl]acetate]
209 to 210 °C | NC(=O)NCC(=O)N1CCc2nc(-c3ccc(O[C@H]4C[C@H](N5CCCCC5)C4)cc3)sc2C1 [Compound 52, 1-{2-oxo-2-[2-{4-[(trans-3-piperidin-1-ylcyclobutyl)oxy]phenyl}-6,7-dihydro[1,3]thiazolo[5,4-c]pyridin-5(4H)-yl]ethyl}urea]
155.3 °C | O=C(CO)N1CCc2sc(-c3ccc(O[C@H]4C[C@H](N5CCCCC5)C4)cc3)nc2C1 [Compound 63, 2-oxo-2-[2-{4-[(trans-3-piperidin-1-ylcyclobutyl)oxy]phenyl}-6,7-dihydro[1,3]thiazolo[4,5-c]pyridin-5(4H)-yl]ethanol]
> 220 °C | O=c1c(O)c(N2CCc3nc(-c4ccc(O[C@H]5C[C@H](N6CCCCC6)C5)cc4)sc3C2)c1=O [Compound 55, 3-hydroxy-4-[2-{4-[(trans-3-piperidin-1-ylcyclobutyl)oxy]phenyl}-6,7-dihydro[1,3]thiazolo[5,4-c]pyridin-5(4H)-yl]cyclobut-3-ene-1,2-dione]
145.7 to 146.1 °C | CC(=O)N1CCc2nc(-c3ccc(O[C@H]4C[C@H](N5CCN(C6CCCC6)CC5)C4)cc3)sc2C1 [Compound 51, 5-acetyl-2-(4-{[trans-3-(4-cyclopentylpiperazin-1-yl)cyclobutyl]oxy}phenyl)-4,5,6,7-tetrahydro[1,3]thiazolo[5,4-c]pyridine]
167 to 168 °C | O=C(C(O)CO)N1CCc2nc(-c3ccc(O[C@H]4C[C@H](N5CCCCC5)C4)cc3)sc2C1 (stereo partly drawn) [Compound 54, 3-oxo-3-[2-{4-[(trans-3-piperidin-1-ylcyclobutyl)oxy]phenyl}-6,7-dihydro[1,3]thiazolo[5,4-c]pyridin-5(4H)-yl]propane-1,2-diol]
